Test results as given in patent publication US7829665B2 (priority 2005, dated 2010).
Where two headings read alike, the source gives them in different places.

What was measured:
[1] = from C=CCCCCC[C@H](NC(=O)OC(C)(C)C)C(=O)N1CCC[C@H]1C(=O)N[C@]1(C(=O)OCC)C[C@H]1C=C; rcm bond; Hoveyda 1st generation catalyst; 1,2-dichloroethane; 10.0 mM; 50.0 °C; 16.0 h
[2] = molecular target: T1, full-length NS3/NS4A-2 (HCV NS3 protease) (Hepatitis C virus genotype 1a, UniProt P27958); test: NS3-NS4 protease assay / NS3 inhibition assay (RETS1 substrate, fluorescence kinetic read); assay type: biochemical
T1 construct: Recombinant E. coli or Baculovirus full-length NS3 was diluted to 3.33 μM with assay buffer; made in house; host or cells: E. coli or baculovirus (BV) expression system
T1 sequence (P27958 1027-1657): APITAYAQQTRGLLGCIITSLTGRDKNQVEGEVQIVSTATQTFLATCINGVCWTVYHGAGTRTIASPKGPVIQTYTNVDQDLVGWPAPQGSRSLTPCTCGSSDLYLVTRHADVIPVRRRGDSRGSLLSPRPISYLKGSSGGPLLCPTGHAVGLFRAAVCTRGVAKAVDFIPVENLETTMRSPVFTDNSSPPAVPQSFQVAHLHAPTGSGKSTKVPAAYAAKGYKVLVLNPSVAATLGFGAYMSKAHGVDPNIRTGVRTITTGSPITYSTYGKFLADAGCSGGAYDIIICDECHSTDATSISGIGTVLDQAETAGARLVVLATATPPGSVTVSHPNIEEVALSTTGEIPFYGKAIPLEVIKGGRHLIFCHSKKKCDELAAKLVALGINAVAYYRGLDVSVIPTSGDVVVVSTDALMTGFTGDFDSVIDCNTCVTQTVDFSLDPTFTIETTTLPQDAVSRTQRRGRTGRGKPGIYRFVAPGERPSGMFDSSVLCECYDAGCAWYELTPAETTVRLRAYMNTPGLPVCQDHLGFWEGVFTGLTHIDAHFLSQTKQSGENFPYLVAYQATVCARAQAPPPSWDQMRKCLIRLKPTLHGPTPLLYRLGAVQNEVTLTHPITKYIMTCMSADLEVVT
Outline: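 Ki values come from IC50 fits corrected via Ki=IC50/(1+[S]/Km), with Km 2.03 μM for E. coli and 1.74 μM for baculovirus full-length NS3. Enzyme (2 or 3 nM NS3, respectively, complexed with NS4A-2) sat with compound, top concentration 50 microM, for 10 min at room temperature. Cleavage of RETS1 (8 μM working solution) was then followed by fluorescence (335/495 nm) over 30 min.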

[3] = tested on: HCV sub-genomic replicon in GS4.3 cells (HuH-7 hepatoma cells); test: Quantitation by ELISA of Neomycin phosphotransferase II (NPTII) in the HCV sub-genomic replicon, GS4.3; assay type: cell-based, hepatitis C virus; details: Hepatitis C virus, Huh-7; GS4.3 cells, 72 h incubation, NPTII ELISA; read-out: Replicon EC50
Outline: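 Replicon-bearing HuH-7 (GS4.3) cells were exposed to compounds for 72 h in G418-free medium, top final concentration 10 μM, 1% DMSO. Lysates went to an NPTII ELISA read at 450 nm. Signal was normalised to DMSO-treated wells and EC50 was derived by four-parameter curve fitting.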

[4] = recombinant E. coli or Baculovirus full-length NS3 with NS4A-2, read-out: NS3-NS4 IC50

## CCOC(=O)[C@@]12C[C@H]1C=CCCCCC[C@H](NC(=O)OC(C)(C)C)C(=O)N1CCC[C@H]1C(=O)N2
[1]
  ring closure, yield of all isomers: 76%

## O=C1N[C@]2(C(=O)NS(=O)(=O)C3CC3)C[C@H]2/C=C\CCCCC[C@H](NCC(F)(F)F)C(=O)N2C[C@H](OC(=O)N3Cc4cccc(F)c4C3)C[C@@H]12 [Compound 921]
[2]; [4]
  IC50: < 0.1 µM
[3]
  EC50: < 1 µM

## CN(C)CCOc1ccc2c(c1)CN(C(=O)O[C@@H]1C[C@H]3C(=O)N[C@]4(C(=O)NS(=O)(=O)C5CC5)C[C@H]4/C=C\CCCCC[C@H](NC(=O)OC4CCCC4)C(=O)N3C1)C2 [Compound 134]
[2]; [4]
  IC50: < 0.1 µM
[3]
  EC50: < 0.1 µM

## CC(C)Nc1c(N[C@H]2CCCCC/C=C\[C@@H]3C[C@@]3(C(=O)NS(=O)(=O)C3CC3)NC(=O)[C@@H]3C[C@@H](OC(=O)N4Cc5cccc(F)c5C4)CN3C2=O)c(=O)c1=O [Compound 184]
[2]; [4]
  IC50: < 0.1 µM
[3]
  EC50: < 10 µM

## O=C1N[C@]2(C(=O)NS(=O)(=O)C3CC3)C[C@H]2/C=C\CCCCC[C@H](NC(=S)NC2CCCC2)C(=O)N2C[C@H](OC(=O)N3Cc4cccc(F)c4C3)C[C@@H]12 [Compound 240]
[2]; [4]
  IC50: < 0.1 µM
[3]
  EC50: < 1 µM

## CC(C)(C)OC(=O)N[C@H]1CCCCC/C=C\[C@@H]2C[C@@]2(C(=O)NS(=O)(=O)c2cnccc2Cl)NC(=O)[C@@H]2C[C@@H](OC(=O)N3Cc4ccccc4C3)CN2C1=O [Compound 108]
[2]; [4]
  IC50: < 0.1 µM
[3]
  EC50: < 10 µM

## CC(C)(C)OC(=O)N[C@H]1CCCCC/C=C\[C@@H]2C[C@@]2(C(=O)NCC2CC2)NC(=O)[C@@H]2C[C@@H](OC(=O)N3Cc4cccc(F)c4C3)CN2C1=O [Compound 603]
[2]; [4]
  IC50: < 1 µM
[3]
  EC50: < 1 µM

## CC(C)(C)OC(=O)N[C@H]1CCCCC/C=C\[C@@H]2C[C@@]2(C(=O)Nc2n[nH]c(C3CC3)n2)NC(=O)[C@@H]2C[C@@H](OC(=O)N3Cc4cccc(F)c4C3)CN2C1=O [Compound 635]
[2]; [4]
  IC50: < 0.1 µM
[3]
  EC50: < 1 µM

## O=C(N[C@H]1CCCCC/C=C\[C@@H]2C[C@@]2(C(=O)NS(=O)(=O)NC2CC2)NC(=O)[C@@H]2C[C@@H](OC(=O)N3CCc4ccccc4C3)CN2C1=O)OC1CCCC1 [Compound 231]
[2]; [4]
  IC50: < 0.1 µM
[3]
  EC50: < 0.1 µM

## CC(C)(C)CN[C@H]1CCCCC/C=C\[C@@H]2C[C@@]2(C(=O)NS(=O)(=O)C2CC2)NC(=O)[C@@H]2C[C@@H](OC(=O)N3Cc4cccc(F)c4C3)CN2C1=O [Compound 920]
[2]; [4]
  IC50: < 0.1 µM
[3]
  EC50: < 0.1 µM

## O=C1N[C@]2(C(=O)NS(=O)(=O)C3CC3)C[C@H]2/C=C\CCCCC[C@H](Nc2c(N3CCC3)c(=O)c2=O)C(=O)N2C[C@H](OC(=O)N3CCc4ccccc4C3)C[C@@H]12 [Compound 242]
[2]; [4]
  IC50: < 0.1 µM
[3]
  EC50: < 10 µM

## CC(C)(C)OC(=O)N[C@H]1CCCCCC[C@@H]2C[C@@]2(C(=O)NS(=O)(=O)C2CC2)NC(=O)[C@@H]2C[C@@H](OC(=O)N3Cc4cccc(F)c4C3)CN2C1=O [Compound 269]
[2]; [4]
  IC50: < 0.1 µM
[3]
  EC50: < 0.1 µM

## CC(C)(C)OC(=O)N[C@H]1CCCCC/C=C\[C@@H]2C[C@@]2(C(=O)NCC2CC2)NC(=O)[C@@H]2C[C@@H](OC(=O)N3Cc4cccc(Cl)c4C3)CN2C1=O [Compound 627]
[2]; [4]
  IC50: < 0.1 µM
[3]
  EC50: < 0.1 µM

## CC(C)(C)OC(=O)N[C@H]1CCCCC/C=C\[C@@H]2C[C@@]2(C(=O)NS(=O)(=O)C2CC2)NC(=O)[C@@H]2C[C@@H](OC(=O)N3CCc4c(Cl)ccc(Cl)c4C3)CN2C1=O [Compound 256]
[2]; [4]
  IC50: < 0.1 µM
[3]
  EC50: < 0.1 µM

## N#CNC(=O)[C@@]12C[C@H]1/C=C\CCCCC[C@H](NC(=O)CCC(F)(F)F)C(=O)N1C[C@H](OC(=O)N3Cc4cccc(F)c4C3)CC1C(=O)N2 (stereo partly shown) [Compound 642]
[2]; [4]
  IC50: < 1 µM
[3]
  EC50: > 10 µM

## CCCC1(S(=O)(=O)NC(=O)[C@@]23C[C@H]2/C=C\CCCCC[C@H](NC(=O)OC(C)(C)C)C(=O)N2C[C@H](OC(=O)N4Cc5ccccc5C4)C[C@H]2C(=O)N3)CC1 [Compound 104]
[2]; [4]
  IC50: < 0.1 µM
[3]
  EC50: < 0.1 µM

## O=C(N[C@H]1CCCCC/C=C\[C@@H]2C[C@@]2(C(=O)NS(=O)(=O)N2CC(F)(F)C2)NC(=O)C2C[C@@H](OC(=O)N3Cc4cccc(Cl)c4C3)CN2C1=O)OC1CCCC1 (stereo partly shown) [Compound 228]
[2]; [4]
  IC50: < 0.1 µM
[3]
  EC50: < 0.1 µM

## O=C1N[C@]2(C(=O)NS(=O)(=O)C3CC3)C[C@H]2/C=C\CCCCC[C@H](NC(=S)N2CCCC2)C(=O)N2C[C@H](OC(=O)N3Cc4cccc(F)c4C3)C[C@@H]12 [Compound 244]
[2]; [4]
  IC50: < 0.1 µM
[3]
  EC50: < 0.1 µM

## N[C@H]1CCCCC/C=C\[C@@H]2C[C@@]2(C(=O)NS(=O)(=O)C2CC2)NC(=O)[C@@H]2C[C@@H](OC(=O)N3Cc4c(Cl)ccc(Cl)c4C3)CN2C1=O [Compound 156]
[2]
  IC50: < 0.1 µM
[3]
  EC50: < 1 µM

## COCC1(S(=O)(=O)NC(=O)[C@@]23C[C@H]2/C=C\CCCCC[C@H](NC(=O)OC(C)(C)C)C(=O)N2C[C@H](OC(=O)N4Cc5ccccc5C4)C[C@H]2C(=O)N3)CC1 [Compound 103]
[2]; [4]
  IC50: < 0.1 µM
[3]
  EC50: < 0.1 µM

## CCOC(=O)[C@@]12C[C@H]1/C=C\CCCCC[C@H](N)C(=O)N1C[C@H](OC(=O)N3Cc4ccccc4C3)C[C@H]1C(=O)N2 [Compound 121]
[2]; [4]
  IC50: < 1 µM
[3]
  EC50: < 1 µM

## CC(C)(C)OC(=O)N[C@H]1CCCCC/C=C\[C@@H]2C[C@@]2(C(=O)NCCO)NC(=O)[C@@H]2C[C@@H](OC(=O)N3Cc4cccc(F)c4C3)CN2C1=O [Compound 620]
[2]; [4]
  IC50: < 1 µM
[3]
  EC50: < 10 µM

## COCC1(S(=O)(=O)NC(=O)[C@@]23C[C@H]2/C=C\CCCCC[C@H](NC(=O)OC2CCCC2)C(=O)N2C[C@H](OC(=O)N4Cc5cccc(F)c5C4)C[C@H]2C(=O)N3)CC1 [Compound 171]
[2]; [4]
  IC50: < 0.1 µM
[3]
  EC50: < 0.1 µM

## CC(C)(C)OC(=O)N[C@H]1CCCCC/C=C\[C@@H]2C[C@@]2(C(=O)N[C@@H]2CCS(=O)(=O)C2)NC(=O)[C@@H]2C[C@@H](OC(=O)N3Cc4cccc(F)c4C3)CN2C1=O [Compound 633]
[2]; [4]
  IC50: < 1 µM
[3]
  EC50: < 1 µM

## CC(C)(C)OC(=O)N[C@H]1CCCCC/C=C\[C@@H]2C[C@@]2(C(=O)NS(=O)(=O)c2cc(Cl)sc2Cl)NC(=O)[C@@H]2C[C@@H](OC(=O)N3Cc4cccc(Cl)c4C3)CN2C1=O [Compound 172]
[2]; [4]
  IC50: < 0.1 µM
[3]
  EC50: < 0.1 µM

## O=C1N[C@]2(C(=O)NS(=O)(=O)C3CC3)C[C@H]2/C=C\CCCCC[C@H](NCc2ccc(Cl)o2)C(=O)N2C[C@H](OC(=O)N3Cc4cccc(F)c4C3)C[C@@H]12 [Compound 914]
[2]; [4]
  IC50: < 0.1 µM
[3]
  EC50: < 0.1 µM

## O=C(N[C@H]1CCCCC/C=C\[C@@H]2C[C@@]2(C(=O)NS(=O)(=O)C2CC2)NC(=O)[C@@H]2C[C@@H](OC(=O)N3Cc4ccc(OCCN5CCOCC5)cc4C3)CN2C1=O)OC1CCCC1 [Compound 132]
[2]; [4]
  IC50: < 0.1 µM
[3]
  EC50: < 0.1 µM

## CC(C)(C)OC(=O)N[C@H]1CCCCC/C=C\[C@@H]2C[C@@]2(C(=O)NS(=O)(=O)C2CC2)NC(=O)C2Cc3cc(Oc4cccc(C(F)(F)F)c4)ccc3CN2C1=O (stereo partly drawn) [Compound 2008, tert-Butyl (1aS,9S,19aR,Z)-19a-(cyclopropylsulfonylcarbamoyl)-10,18-dioxo-15-(3-(trifluoromethyl)phenoxy)-1a,4,5,6,7,8,9,10,12,17,17a,18,19,19a-tetradecahydro-1H-1,14-diaza-bicyclo[13.1.0]hexadeca-1(15), 2-dieno[11,12-b]isoquinolin-9-ylcarbamate]
[2]; [4]
  IC50: < 1 µM
[3]
  EC50: < 10 µM

## COC(=O)c1cccc(CNC(=O)[C@@]23C[C@H]2/C=C\CCCCC[C@H](NC(=O)OC(C)(C)C)C(=O)N2C[C@H](OC(=O)N4Cc5cccc(F)c5C4)C[C@H]2C(=O)N3)c1 [Compound 602]
[2]; [4]
  IC50: < 1 µM
[3]
  EC50: < 1 µM

## CC[C@@H]1C[C@H]2C(=O)N[C@]3(C(=O)NS(=O)(=O)C4CC4)C[C@H]3/C=C\CCCCC[C@H](NC(=O)OC3CCCC3)C(=O)N2C1 [Compound 314]
[2]; [4]
  IC50: < 0.1 µM
[3]
  EC50: < 10 µM

## CN(Cc1ccccc1)S(=O)(=O)NC(=O)[C@@]12C[C@H]1/C=C\CCCCC[C@H](NC(=O)OC(C)(C)C)C(=O)N1C[C@H](OC(=O)N3Cc4cccc(F)c4C3)C[C@H]1C(=O)N2 [Compound 210]
[2]; [4]
  IC50: < 0.1 µM
[3]
  EC50: < 0.1 µM
